Laboratory results published in article PMC6934184, “Selective DNA-PKcs inhibition extends the therapeutic index of localized radiotherapy and chemotherapy” (The Journal of Clinical Investigation, 2019).

Molecular target: T1, BLK (Homo sapiens, UniProt P51451)
T1 construct: purchased Thermo Fisher Scientific (Life Technologies) SelectScreen
Test: SelectScreen Z'LYTE
Assay type: biochemical
Summary of the method: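 SelectScreen broad panel; activity (Z'LYTE, Adapta) plus binding formats. ATP: Km app for CSF1R Z'LYTE; 10 for CAMK1 Adapta. Readout = % per kinase.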

T1 sequence (P51451 whole entry): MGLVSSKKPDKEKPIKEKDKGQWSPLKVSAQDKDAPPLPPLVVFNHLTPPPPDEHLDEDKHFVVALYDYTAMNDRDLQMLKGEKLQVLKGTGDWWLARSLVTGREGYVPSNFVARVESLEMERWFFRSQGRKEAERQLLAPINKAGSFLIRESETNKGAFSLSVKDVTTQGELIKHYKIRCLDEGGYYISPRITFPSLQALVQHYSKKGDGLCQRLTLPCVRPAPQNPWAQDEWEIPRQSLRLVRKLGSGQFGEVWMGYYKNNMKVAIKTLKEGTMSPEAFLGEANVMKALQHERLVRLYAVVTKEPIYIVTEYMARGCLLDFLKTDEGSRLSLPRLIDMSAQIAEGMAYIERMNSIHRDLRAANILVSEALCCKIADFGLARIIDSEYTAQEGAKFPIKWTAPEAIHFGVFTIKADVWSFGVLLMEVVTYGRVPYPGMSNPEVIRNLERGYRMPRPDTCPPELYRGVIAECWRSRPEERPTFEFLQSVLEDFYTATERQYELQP

Structure (SMILES): CN(C(=O)CN1CCOCC1)c1ccc2sc3c(-c4cccc5c(=O)cc(N6CC7CCC(C6)O7)oc45)cccc3c2c1 [NU5455]
- inhibition at 1 µM: -8.9%
